Laboratory results: patent publication US20230406831A1, “COMPOUNDS AND METHODS OF INHIBITING BACTERIAL CHAPERONIN SYSTEMS” (THE TRUSTEES OF INDIANA UNIVERSITY, priority 2020, published 2023)
Like-named read-outs stand apart in the source and are kept apart here.

How the values were obtained:
[1] = HEK 293 kidney cell viability / cytotoxicity assay (Alamar Blue); assay type: cell-based; details: human, 48 h incubation, Alamar Blue, read-out: HEK 293 Kidney Cell Viability CC50
S. aureus = S. aureus bacterial proliferation assay; assay type: cell-based; details: Staphylococcus aureus, read-out: S. aureus Proliferation EC50
Method in brief: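 Growth in BHI with 25 mg/L Ca2+ and 12.5 mg/L Mg2+; log-phase cultures diluted to OD600 0.017 and exposed to compounds at 100 μM–46 nM (3-fold series). Stagnant 37 °C incubation, OD600 read at 6–8 h, corrected with bacteria-free plates; EC50 by variable-slope nonlinear regression.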

[2] = Table 3, cation adjusted BHI media, OD600 at 6-8 h
[3] = Table 1, cation adjusted BHI media, OD600 at 6-8 h

Row | SMILES | CC50 at 48 h ([1]; HEK 293 kidney cells, Table 3) [µM] | EC50 (S. aureus; [2]) [µM] | other results
1 | COc1ccc(Cl)cc1C(=O)Nc1ccc(Sc2nc3ccccc3s2)cc1 [Compound 96, N-(4-(benzo[d]thiazol-2-ylthio)phenyl)-5-chloro-2-methoxybenzamide] | 56 | > 100 | –
2 | O=C(Nc1ccc(Sc2nc3ccccc3s2)cc1)c1cc(Cl)ccc1O [Compound 97, N-(4-(benzo[d]thiazol-2-ylthio)phenyl)-5-chloro-2-hydroxybenzamide] | 28 | 0.1 | –
3 | COc1ccc(Cl)cc1C(=O)Nc1ccc(Cc2ccccc2)cc1 [Compound 98, N-(4-benzylphenyl)-5-chloro-2-methoxybenzamide] | > 100 | > 100 | –
4 | O=C(Nc1ccc(Cc2ccccc2)cc1)c1cc(Cl)ccc1O [Compound 99, N-(4-benzylphenyl)-5-chloro-2-hydroxybenzamide] | – | > 100 | CC50 at 48 h ([1]; Table 3): 19 µM
5 | COc1ccc(Cl)cc1C(=O)Nc1ccc(CCc2ccccc2)cc1 [Compound 100, 5-chloro-2-methoxy-N-(4-phenethylphenyl)benzamide] | > 100 | > 100 | –
6 | O=C(Nc1ccc(CCc2ccccc2)cc1)c1cc(Cl)ccc1O [Compound 101] | 4.3 | 83 | –
7 | COc1ccc(Cl)cc1C(=O)Nc1ccc(OCc2ccccc2)cc1 [Compound 102, N-(4-(benzyloxy)phenyl)-5-chloro-2-methoxybenzamide] | > 100 | > 100 | –
8 | O=C(Nc1ccc(OCc2ccccc2)cc1)c1cc(Cl)ccc1O [Compound 103, N-(4-(benzyloxy)phenyl)-5-chloro-2-hydroxybenzamide] | > 100 | > 100 | –
9 | COc1ccc(Cl)cc1C(=O)Nc1ccc(NC(C)=O)cc1 [Compound 104, N-(4-acetamidophenyl)-5-chloro-2-methoxybenzamide] | > 100 | > 100 | –
10 | CC(=O)Nc1ccc(NC(=O)c2cc(Cl)ccc2O)cc1 [Compound 105, N-(4-acetamidophenyl)-5-chloro-2-hydroxybenzamide] | 69 | > 100 | –
11 | COC(=O)c1ccc(NC(=O)c2cc(Cl)ccc2OC)cc1 [Compound 106, methyl 4-(5-chloro-2-methoxybenzamido)benzoate] | 24 | > 100 | –
12 | COC(=O)c1ccc(NC(=O)c2cc(Cl)ccc2O)cc1 [Compound 107, methyl 4-(5-chloro-2-hydroxybenzamido)benzoate] | 11 | 0.94 | –
13 | COc1ccc(Cl)cc1C(=O)Nc1ccc(C(=O)O)cc1 [Compound 108, 4-(5-chloro-2-methoxybenzamido)benzoic acid] | > 100 | > 100 | –
14 | COc1ccc(Cl)cc1C(=O)Nc1ccc(CC#N)cc1 [Compound 110, 5-chloro-N-(4-(cyanomethyl)phenyl)-2-methoxybenzamide] | > 100 | > 100 | –
15 | N#CCc1ccc(NC(=O)c2cc(Cl)ccc2O)cc1 [Compound 111, 5-chloro-N-(4-(cyanomethyl)phenyl)-2-hydroxybenzamide] | 19 | > 100 | –
16 | COc1ccc(NC(=O)c2cc(Cl)ccc2OC)cc1 [Compound 112, 5-chloro-2-methoxy-N-(4-methoxyphenyl)benzamide] | > 100 | > 100 | –
17 | COc1ccc(NC(=O)c2cc(Cl)ccc2O)cc1 [Compound 113, 5-chloro-2-hydroxy-N-(4-methoxyphenyl)benzamide] | 19 | 31 | –
18 | COc1ccc(Cl)cc1C(=O)Nc1ccc(O)cc1 [Compound 114, 5-chloro-N-(4-hydroxyphenyl)-2-methoxybenzamide] | > 100 | > 100 | –
19 | O=C(Nc1ccc(O)cc1)c1cc(Cl)ccc1O [Compound 115, 5-chloro-2-hydroxy-N-(4-hydroxyphenyl)benzamide] | > 100 | > 100 | –
20 | COc1ccc(Cl)cc1C(=O)Nc1ccccc1 [Compound 116, 5-chloro-2-methoxy-N-phenylbenzamide] | > 100 | > 100 | –
21 | O=C(Nc1ccccc1)c1cc(Cl)ccc1O [Compound 117, 5-chloro-2-hydroxy-N-phenylbenzamide] | 13 | 2.2 | –
22 | O=C(Nc1ccc([N+](=O)[O-])cc1Cl)c1cc(Cl)ccc1O [Niclosamide, reference compound] | – | – | CC50 at 48 h ([1]; HEK 293 kidney cells, Table 1): 1.7 µM; EC50 (S. aureus; [3]): 0.074 µM
23 | CC(=O)Oc1ccccc1C(=O)Nc1ncc([N+](=O)[O-])s1 [Nitazoxanide, reference compound] | – | – | CC50 at 48 h ([1]; HEK 293 kidney cells, Table 1): 30 µM; EC50 (S. aureus; [3]): 12 µM
24 | O=C(Nc1cc(Cl)cc(Cl)c1O)c1c(O)c(Cl)cc(Cl)c1Cl [Oxyclosanide, reference compound] | – | – | CC50 at 48 h ([1]; HEK 293 kidney cells, Table 1): 30 µM; EC50 (S. aureus; [3]): 0.52 µM
25 | O=C(Nc1ccc(Oc2ccc(Cl)cc2)c(Cl)c1)c1cc(I)cc(I)c1O [Rafoxanide, reference compound] | – | – | CC50 at 48 h ([1]; Table 1): 82 µM; EC50 (S. aureus): 0.3 µM
26 | O=C(Nc1ncc([N+](=O)[O-])s1)c1ccccc1O [Tizoxanide, reference compound] | – | – | CC50 at 48 h ([1]; HEK 293 kidney cells, Table 1): 31 µM; EC50 (S. aureus; [3]): 9.7 µM
